In PMC6010916, “Safety and pharmacokinetics of veliparib extended‐release in patients with advanced solid tumors: a phase I study” (Cancer Medicine, 2018):

Tests used:
[1] = Safety: treatment-emergent adverse events (NCI CTCAE version 4.0); type: in vivo, human
Protocol: (§1) Adverse event (AE) severity was assessed according to the National Cancer Institute Common Terminology Criteria for Adverse Events (NCI CTCAE) version 4.0. Tumor evaluations were performed at screening, every 8 weeks after the first administration of study drug, and at the final visit using radiographic measurements from computed tomography or magnetic resonance imaging. Objective tumor responses were evaluated using RECIST version 1.1 criteria. Patients who received one or more doses of veliparib were included in the PK and safety analyses, as well as for evaluation of time to disease progression (TTP). Patients with one or more measurable lesion at baseline were included in the analysis of objective responses.

[2] = tested on: advanced solid tumors (ovarian, breast carcinoma); assay: Time to disease progression (TTP); type: in vivo, human
Protocol: as §1

[3] = cited from earlier work
[4] = cited from earlier work; remark: listed apart in the source
[5] = Cycle 1, Part 1, extension (n = 24)

C[C@]1(c2nc3c(C(N)=O)cccc3[nH]2)CCCN1 [veliparib]
TEAE: Any AE [1, 5]: 23 (95.8) n (%) | TEAE: At least possibly related to study drug [1, 5]: 14 (58.3) n (%) | TEAE: NCI CTCAE grade 3 or 4 [1, 5]: 4 (16.7) n (%) | Any SAE ([1]; Cycle 1, Part 2 (n = 35)): 5 (14.3) n (%) | SAE leading to discontinuation ([1]; Cycle 1, Part 2 (n = 35)): 1 (2.9) n (%) | SAE leading to dose interruption ([1]; Cycle 1, Part 2 (n = 35)): 3 (8.6) n (%) | SAE leading to dose reduction ([1]; Cycle 1, Part 2 (n = 35)): 1 (2.9) n (%) | TEAE: Any AE ([1]; Cycle 1, Part 2 (n = 35)): 34 (97.1) n (%) | TEAE: At least possibly related to study drug ([1]; Cycle 1, Part 2 (n = 35)): 29 (82.9) n (%) | TEAE: NCI CTCAE grade 3 or 4 ([1]; Cycle 1, Part 2 (n = 35)): 8 (22.9) n (%) | Any SAE ([1]; Cycle 1, Part 3 (n = 12)): 1 (8.3) n (%) | SAE leading to discontinuation ([1]; Cycle 1, Part 3 (n = 12)): 0 n (%) | SAE leading to dose interruption ([1]; Cycle 1, Part 3 (n = 12)): 1 (8.3) n (%) | SAE leading to dose reduction ([1]; Cycle 1, Part 3 (n = 12)): 0 n (%) | TEAE: Any AE ([1]; Cycle 1, Part 3 (n = 12)): 10 (83.3) n (%) | TEAE: At least possibly related to study drug ([1]; Cycle 1, Part 3 (n = 12)): 7 (58.3) n (%) | TEAE: NCI CTCAE grade 3 or 4 ([1]; Cycle 1, Part 3 (n = 12)): 1 (8.3) n (%) | Any SAE ([1]; Part 1, PK BA portion (n = 24)): 2 (8.3) n (%) | SAE leading to discontinuation ([1]; Part 1, PK BA portion (n = 24)): 0 n (%) | SAE leading to dose interruption ([1]; Part 1, PK BA portion (n = 24)): 1 (4.2) n (%) | SAE leading to dose reduction ([1]; Part 1, PK BA portion (n = 24)): 0 n (%) | TEAE: Any AE ([1]; Part 1, PK BA portion (n = 24)): 17 (70.8) n (%) | TEAE: At least possibly related to study drug ([1]; Part 1, PK BA portion (n = 24)): 7 (29.2) n (%) | TEAE: NCI CTCAE grade 3 or 4 ([1]; Part 1, PK BA portion (n = 24)): 2 (8.3) n (%) | TEAE: Abdominal pain ([1]; Part 1, PK phase (n = 24)): 3 (12.5) n (%) | TEAE: Anemia ([1]; Part 1, PK phase (n = 24)): 1 (4.2) n (%) | TEAE: Constipation ([1]; Part 1, PK phase (n = 24)): 0 n (%) | TEAE: Decreased appetite ([1]; Part 1, PK phase (n = 24)): 1 (4.2) n (%) | TEAE: Diarrhea ([1]; Part 1, PK phase (n = 24)): 2 (8.3) n (%) | TEAE: Fatigue ([1]; Part 1, PK phase (n = 24)): 0 n (%) | TEAE: Nausea ([1]; Part 1, PK phase (n = 24)): 4 (16.7) n (%) | TEAE: Nausea, Grade 1 ([1]; Part 1, PK phase (n = 24)): 4 (16.7) n (%) | TEAE: Nausea, Grade 2 ([1]; Part 1, PK phase (n = 24)): 0 n (%) | TEAE: Nausea, Grade 3 ([1]; Part 1, PK phase (n = 24)): 0 n (%) | TEAE: Urinary tract infection ([1]; Part 1, PK phase (n = 24)): 0 n (%) | TEAE: Vomiting ([1]; Part 1, PK phase (n = 24)): 1 (4.2) n (%) | TEAE: Vomiting, Grade 1 ([1]; Part 1, PK phase (n = 24)): 1 (4.2) n (%) | TEAE: Vomiting, Grade 2 ([1]; Part 1, PK phase (n = 24)): 0 n (%) | TEAE: Vomiting, Grade 3 ([1]; Part 1, PK phase (n = 24)): 0 n (%) | grade 3 or 4 treatment-related anemia, patients ([1]; Part 1 extension/Part 2/Part 3): 0/3/0 | grade 3 or 4 treatment-related nausea, patients ([1]; Part 1 extension/Part 2/Part 3): 0/2/1 | grade 3 or 4 treatment-related thrombocytopenia, patients ([1]; Part 1 extension/Part 2/Part 3): 2/3/0 | TEAE: Abdominal pain ([1]; Total (N = 71)): 17 (23.9) n (%) | TEAE: Constipation ([1]; Total (N = 71)): 23 (32.4) n (%) | TEAE: Decreased appetite ([1]; Total (N = 71)): 15 (21.1) n (%) | TEAE: Diarrhea ([1]; Total (N = 71)): 23 (32.4) n (%) | TEAE: Fatigue ([1]; Total (N = 71)): 23 (32.4) n (%) | TEAE: Nausea ([1]; Total (N = 71)): 56 (78.9) n (%) | TEAE: Nausea, Grade 1 ([1]; Total (N = 71)): 45 (63.4) n (%) | TEAE: Nausea, Grade 2 ([1]; Total (N = 71)): 10 (14.1) n (%) | TEAE: Nausea, Grade 3 ([1]; Total (N = 71)): 3 (4.2) n (%) | TEAE: Urinary tract infection ([1]; Total (N = 71)): 15 (21.1) n (%) | TEAE: Vomiting ([1]; Total (N = 71)): 36 (50.7) n (%) | TEAE: Vomiting, Grade 1 ([1]; Total (N = 71)): 29 (40.8) n (%) | TEAE: Vomiting, Grade 2 ([1]; Total (N = 71)): 5 (7.0) n (%) | TEAE: Vomiting, Grade 3 ([1]; Total (N = 71)): 2 (2.8) n (%) | patients who experienced one or more TEAE ([1]; all cycles, 71 patients): 98.6% | patients with Grade 3 or 4 TEAEs ([1]; all cycles, 71 patients): 39.4% | patients who experienced one or more TEAE ([1]; cycle 1, 71 patients): 94.4% | patients with Grade 3 or 4 TEAEs ([1]; cycle 1, 71 patients): 18.3% | grade 3 or 4 treatment-related anemia ([1]; overall): 4.2% | grade 3 or 4 treatment-related nausea ([1]; overall): 4.2% | grade 3 or 4 treatment-related thrombocytopenia ([1]; overall): 7.0% | TEAE constipation, frequency ([1]; overall, 71 patients): 32.4% | TEAE diarrhea, frequency ([1]; overall, 71 patients): 32.4% | TEAE fatigue, frequency ([1]; overall, 71 patients): 32.4% | TEAE nausea, frequency ([1]; overall, 71 patients): 78.9% | TEAE vomiting, frequency ([1]; overall, 71 patients): 50.7% | 6-month TTP rate ([2]; breast carcinoma (n = 17)): 53.5% | 6-month TTP rate ([2]; deleterious BRCA mutations, breast carcinoma): 53.5% | 6-month TTP rate ([2]; deleterious BRCA mutations, ovarian carcinoma): 35.7% | 6-month TTP rate ([2]; ovarian carcinoma (n = 53)): 31.8% | 6-month TTP rate (had not progressed at 6 months) ([2]; overall (N = 71)): 38.1% | median TTP ([2]; overall population (N = 71)): 149 days | 6-month TTP rate ([2]; patients with deleterious BRCA mutations): 43.0% | 6-month TTP rate ([2]; patients without BRCA mutations): 22.9% | 6-month TTP rate ([2]; unknown BRCA mutation status): 27.8% | absorption [3]: rapid absorption | elimination [3]: predominant elimination through urinary excretion of the unchanged drug | oral bioavailability [3]: high oral bioavailability | RP2D ([4]; single agent, phase I study): 400 mg twice-daily (BID) | patients experiencing grade 3 or 4 neutropenia or thrombocytopenia ([4]; single-agent therapy, phase I and II trials): 2% | patients with dose modifications, predominantly for nausea and vomiting ([4]; single-agent therapy): 78%
